In US12606541B2, “PPARg modulators and methods of use” (Eisai R&D Management Co., Ltd., priority 2020, dated 2026):

Legend:
UM-UC-9 engineered cells = assay: Cell proliferation / short-term viability assay, CellTiter-Glo 144 h; format: cell-based, human; details: Homo sapiens, UM-UC-9, 144 h, read-out: CTGlo 144 h UMUC9.5, G150
How it was run: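 UM-UC-9 engineered assay-ready cells seeded at 500 cells/well in high-glucose DMEM/10% FBS, treated from dose-response plates, grown at 37° C, 5% CO2. CellTiter-Glo 2.0 luminescence read on day 7, with a day-0 pretreatment plate as T0 reference and DMSO wells as negative control.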

His6-TEV-PPARγ-(234-505) = biological target: T1, His6-TEV-PPARγ-(234-505) (Homo sapiens, UniProt P37231); assay: TR-FRET Assay to Measure Co-R Peptide Recruitment to PPARγ; format: biochemical; details: Co-R peptide (SMRT-ID2) recruitment; top final concentration 20 μM; read-out: TR-FRET i-Ag; AC50
T1 construct: The His6-TEV-PPARγ-(234-505) protein for assay was expressed and purified; TEV cleavage site (N); made in house
T1 sequence (P37231 234-505): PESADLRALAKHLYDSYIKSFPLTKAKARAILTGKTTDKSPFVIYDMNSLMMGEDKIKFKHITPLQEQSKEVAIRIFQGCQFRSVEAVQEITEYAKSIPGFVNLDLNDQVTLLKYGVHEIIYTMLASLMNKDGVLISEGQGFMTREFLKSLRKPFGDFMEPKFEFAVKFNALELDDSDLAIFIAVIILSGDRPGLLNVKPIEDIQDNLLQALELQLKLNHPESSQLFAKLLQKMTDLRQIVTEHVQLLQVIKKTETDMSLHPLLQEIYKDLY
How it was run: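 His-tagged PPARγ (or controls) was preincubated with compound for 20 minutes at room temperature, then 5 nM anti-His terbium antibody and 200 nM FITC-labeled SMRT-ID2 corepressor peptide (final) were added for a further hour. TR-FRET signal was normalized to percent response using 500 nM T0070907 and DMSO controls.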

| SMILES | IC50 (UM-UC-9 engineered cells) [µM] | AC50 (His6-TEV-PPARγ-(234-505)) [µM] |
| --- | --- | --- |
| COc1cc(-c2cc(C(=O)N3CC[C@H](C(=O)NC4CC5CCC(C4)O5)CC34CC4)n[nH]2)c(F)cn1 (stereo partly drawn) [Example 354, (7S)—N-(8-oxabicyclo[3.2.1]octan-3-yl)-4-(5-(5-fluoro-2-methoxypyridin-4-yl)-1H-pyrazole-3-carbonyl)-4-azaspiro[2.5]octane-7-carboxamide] | 0.0286 | 0.0241 |
| COc1cc(-c2cc(C(=O)N3CC[C@H](C(=O)NCc4ncccc4Cl)CC34CC4)n[nH]2)c(F)cn1 [Example 358, (S)—N-((3-chloropyridin-2-yl)methyl)-4-(5-(5-fluoro-2-methoxypyridin-4-yl)-1H-pyrazole-3-carbonyl)-4-azaspiro[2.5]octane-7-carboxamide] | 0.0034 | 0.0051 |
| COc1cc(-c2cc(C(=O)N3CC[C@H](C(=O)NCc4ncccc4C)CC34CC4)n[nH]2)c(F)cn1 [Example 359, (S)-4-(5-(5-fluoro-2-methoxypyridin-4-yl)-1H-pyrazole-3-carbonyl)-N-((3-methylpyridin-2-yl)methyl)-4-azaspiro[2.5]octane-7-carboxamide] | 0.0199 | 0.008 |
| COc1cc(-c2cc(C(=O)N3CC[C@H](C(=O)NCc4ncc(F)cc4C)CC34CC4)n[nH]2)c(F)cn1 [Example 361, (S)-4-(5-(5-fluoro-2-methoxypyridin-4-yl)-1H-pyrazole-3-carbonyl)-N-((5-fluoro-3-methylpyridin-2-yl)methyl)-4-azaspiro[2,5]octane-7-carboxamide] | 0.0178 | 0.0102 |
| COc1cc(-c2cc(C(=O)N3CC[C@H](C(=O)NCc4ncc(F)cc4Cl)CC34CC4)n[nH]2)c(F)cn1 [Example 362, (S)—N-((3-chloro-5-fluoropyridin-2-yl)methyl)-4-(5-(5-fluoro-2-methoxypyridin-4-yl)-1H-pyrazole-3-carbonyl)-4-azaspiro[2.5]octane-7-carboxamide] | 0.0087 | 0.0037 |
| COc1cc(-c2cc(C(=O)N3CC[C@H](C(=O)NCc4ncc(F)cc4C(F)(F)F)CC34CC4)n[nH]2)c(F)cn1 [Example 363, (S)-4-(5-(5-fluoro-2-methoxypyridin-4-yl)-1H-pyrazole-3-carbonyl)-N-((5-fluoro-3-(trifluoromethyl)pyridin-2-yl)methyl)-4-azaspiro[2.5]octane-7-carboxamide] | 0.0035 | 0.006 |
| COc1cc(-c2cc(C(=O)N3CC[C@H](C(=O)NCc4ncc(C(C)(C)O)cc4Cl)CC34CC4)n[nH]2)c(F)cn1 [Example 364, (S)—N-((3-chloro-5-(2-hydroxypropan-2-yl)pyridin-2-yl)methyl)-4-(5-(5-fluoro-2-methoxypyridin-4-yl)-1H-pyrazole-3-carbonyl)-4-azaspiro[2.5]octane-7-carboxamide] | 0.0562 | 0.0131 |
| COc1cc(-c2cc(C(=O)N3CC[C@H](C(=O)NCC45CC(C(F)(F)F)(CO4)C5)CC34CC4)n[nH]2)c(F)cn1 [Example 365, (S)-4-(5-(5-fluoro-2-methoxypyridin-4-yl)-1H-pyrazole-3-carbonyl)-N-((4-(trifluoromethyl)-2-oxabicyclo[2.1.1]hexan-1-yl)methyl)-4-azaspiro[2.5]octane-7-carboxamide] | 0.0219 | 0.01 |
| COc1cc(-c2cc(C(=O)N3CC[C@H](C(=O)NCc4cn5c(n4)COCC5)CC34CC4)n[nH]2)c(F)cn1 [Example 371, (S)—N-((5,6-dihydro-8H-imidazo[2,1-c][1,4]oxazin-2-yl)methyl)-4-(5-(5-fluoro-2-methoxypyridin-4-yl)-1H-pyrazole-3-carbonyl)-4-azaspiro[2.5]octane-7-carboxamide] | 0.339 | 0.0364 |
| COc1cc(-c2cc(C(=O)N3CC[C@H](C(=O)Nc4cnn5ccc(C)nc45)CC34CC4)n[nH]2)c(F)cn1 [Example 381, (S)-4-(5-(5-fluoro-2-methoxypyridin-4-yl)-1H-pyrazole-3-carbonyl)-N-(5-methylpyrazolo[1,5-a]pyrimidin-3-yl)-4-azaspiro[2.5]octane-7-carboxamide] | 0.0058 | 0.0123 |
| COc1cc(-c2cc(C(=O)N3[C@@H]4CC[C@H]3C[C@H](C(=O)NCc3ncc(F)cc3Cl)C4)n[nH]2)c(F)cn1 [Example 384, (1R,3s,5S)—N-((3-chloro-5-fluoropyridin-2-yl)methyl)-8-(5-(5-fluoro-2-methoxypyridin-4-yl)-1H-pyrazole-3-carbonyl)-8-azabicyclo[3.2.1]octane-3-carboxamide] | 0.0821 | 0.0152 |
| COc1cc(-c2cc(C(=O)N3CC[C@H](C(=O)NCc4nnccc4C)CC34CC4)n[nH]2)c(F)cn1 [Example 386, (S)-4-(5-(5-fluoro-2-methoxypyridin-4-yl)-1H-pyrazole-3-carbonyl)-N-((4-methylpyridazin-3-yl)methyl)-4-azaspiro[2.5]octane-7-carboxamide] | 0.231 | 0.181 |
| COc1cc(-c2cc(C(=O)N3CC[C@H](C(=O)NCc4nc(C)ncc4Cl)CC34CC4)n[nH]2)c(F)cn1 [Example 387, (S)—N-((5-chloro-2-methylpyrimidin-4-yl)methyl)-4-(5-(5-fluoro-2-methoxypyridin-4-yl)-1H-pyrazole-3-carbonyl)-4-azaspiro[2,5]octane-7-carboxamide] | 0.0225 | 0.0144 |
| COc1cc(-c2cc(C(=O)N3CC[C@H](C(=O)NCc4nccnc4Cl)CC34CC4)n[nH]2)c(F)cn1 [Example 388, (S)—N-((3-chloropyrazin-2-yl)methyl)-4-(5-(5-fluoro-2-methoxypyridin-4-yl)-1H-pyrazole-3-carbonyl)-4-azaspiro[2.5]octane-7-carboxamide] | 0.0176 | 0.0114 |
| COc1cc(-c2cc(C(=O)N3CC[C@H](C(=O)NCc4ncc(F)cc4OC)CC34CC4)n[nH]2)c(F)cn1 [Example 389, (S)-4-(5-(5-fluoro-2-methoxypyridin-4-yl)-1H-pyrazole-3-carbonyl)-N-((5-fluoro-3-methoxypyridin-2-yl)methyl)-4-azaspiro[2.5]octane-7-carboxamide] | 0.013 | 0.0103 |
| COc1cc(-c2cc(C(=O)N3CC[C@H](C(=O)NCc4ncc(C#N)cc4Cl)CC34CC4)n[nH]2)c(F)cn1 [Example 391, (S)—N-((3-chloro-5-cyanopyridin-2-yl)methyl)-4-(5-(5-fluoro-2-methoxypyridin-4-yl)-1H-pyrazole-3-carbonyl)-4-azaspiro[2.5]octane-7-carboxamide] | 0.0813 | 0.0195 |
| COc1cc(-c2cc(C(=O)N3CC[C@H](C(=O)NCc4ncc(C5COC5)cc4Cl)CC34CC4)n[nH]2)c(F)cn1 [Example 392, (S)—N-((3-chloro-5-(oxetan-3-yl)pyridin-2-yl)methyl)-4-(5-(5-fluoro-2-methoxypyridin-4-yl)-1H-pyrazole-3-carbonyl)-4-azaspiro[2.5]octane-7-carboxamide] | 0.0452 | 0.0091 |
| COc1cc(-c2cc(C(=O)N3CC[C@H](C(=O)NCc4ncc(N5CC(C#N)C5)cc4Cl)CC34CC4)n[nH]2)c(F)cn1 [Example 393, (S)—N-((3-chloro-5-(3-cyanoazetidin-1-yl)pyridin-2-yl)methyl)-4-(5-(5-fluoro-2-methoxypyridin-4-yl)-1H-pyrazole-3-carbonyl)-4-azaspiro[2.5]octane-7-carboxamide] | 0.106 | 0.0092 |
| COc1cc(-c2cc(C(=O)N3CC[C@H](C(=O)NCc4nc(C)oc4C(F)(F)F)CC34CC4)n[nH]2)c(F)cn1 [Example 394, (S)-4-(5-(5-fluoro-2-methoxypyridin-4-yl)-1H-pyrazole-3-carbonyl)-N-((2-methyl-5-(trifluoromethyl)oxazol-4-yl)methyl)-4-azaspiro[2.5]octane-7-carboxamide] | 0.0245 | 0.0087 |
| COc1cc(-c2cc(C(=O)N3CC[C@H](C(=O)NCc4nccnc4C)CC34CC4)n[nH]2)c(F)cn1 [Example 397, (S)-4-(5-(5-fluoro-2-methoxypyridin-4-yl)-1H-pyrazole-3-carbonyl)-N-((3-methylpyrazin-2-yl)methyl)-4-azaspiro[2.5]octane-7-carboxamide] | 0.0599 | 0.0234 |
| COc1cc(-c2cc(C(=O)N3CC[C@H](C(=O)NCc4ncc(F)cc4F)CC34CC4)n[nH]2)c(F)cn1 [Example 400, (S)—N-((3,5-difluoropyridin-2-yl)methyl)-4-(5-(5-fluoro-2-methoxypyridin-4-yl)-1H-pyrazole-3-carbonyl)-4-azaspiro[2.5]octane-7-carboxamide] | 0.0243 | 0.0126 |
| COc1cnc(CNC(=O)[C@H]2CCN(C(=O)c3cc(-c4cc(OC)ncc4F)[nH]n3)C3(CC3)C2)c(Cl)c1 [Example 402, (S)—N((3-chloro-5-methoxypyridin-2-yl)methyl)-4-(5-(5-fluoro-2-methoxypyridin-4-yl)-1H-pyrazole-3-carbonyl)-4-azaspiro[2.5]octane-7-carboxamide] | 0.0029 | 0.0108 |
